# Measured values reported in patent US20240426832A1, “METHODS OF IDENTIFYING COMPOUNDS FOR INDUCING PROTEIN-PROTEIN INTERACTION” (Oncopia Therapeutics, Inc. d/b/a/ SK Life Science Labs, priority 2023, published 2024).
# What was measured:
# IKZF2-CRBN [1] = biological target: T1, IKZF2-CRBN (Homo sapiens, UniProt Q96SW2+Q9UKS7); assay: glue screening assay (tripartite split-GFP fluorescence), GFP11-tagged IKZF2 and GFP10-tagged CRBN; type: binding; settings: protein mix GFP1-9, GFP11-IKZF2, IKZF2-GFP11, GFP10-CRBN, time-course, FIG. 5
# Procedure: In another version of the assay, the glue screening assay mixture is assembled in a volume of 2 μL assay buffer (50 mM HEPES buffer, pH 7.5, 150 mM KCl, 4 mM DTT, 0.1 mg/mL BSA, 0.25 mM octyl-beta-glucopyranoside, 5% glycerol with 0.3 μg GFP1-9, 0.05 μg of GFP11-tagged IKZF2, and 0.3 μg GFP10-tagged CRBN. Various variations of the buffer provide consistent signal in this assay (0.1-1 mg/mL BSA, 0-10% glycerol, 0-1 mM octyl-beta-glucopyranoside). Similar to the previous version, two different versions of GFP11-tagged IKZF2 are tested with GFP11 fused to N- and C-termini of IKZF2 (GFP11-IKZF2 and IKZF2-GFP11, respectively). Likewise, two different versions of GFP10-tagged CRBN are tested: GFP10 fused to the N-terminus of CRBN (GFP10-CRBN) and GFP10 fused to the C-terminus of CRBN (CRBN-GFP10). Concentrations correspond to 5 μM of GFP (1-9), 1.25 μM of each of the IKZF2 constructs and 0.5 μM of each of the two CRBN constructs. Concentrations of the IKZF2 and CRBN proteins were optimized for best signal to background by titrating the proteins against each other.
# For primary screens, these five different proteins (GFP1-9, GFP11-IKZF2, IKZF2-GFP11, GFP10-CRBN, and CRBN-GFP10) are combined in the assay buffer and added to the plates containing different compound pools. […]
# IKZF2-CRBN [2] = biological target: T1, IKZF2-CRBN; settings: stated as known; cited from earlier work
# RBM39 and DCAF15 = RBM39 and DCAF15 (Homo sapiens, UniProt Q14498+Q66K64); settings: stated as known; cited from earlier work
# RBM39 and DCAF15, sequence (Q14498 whole entry, species assumed): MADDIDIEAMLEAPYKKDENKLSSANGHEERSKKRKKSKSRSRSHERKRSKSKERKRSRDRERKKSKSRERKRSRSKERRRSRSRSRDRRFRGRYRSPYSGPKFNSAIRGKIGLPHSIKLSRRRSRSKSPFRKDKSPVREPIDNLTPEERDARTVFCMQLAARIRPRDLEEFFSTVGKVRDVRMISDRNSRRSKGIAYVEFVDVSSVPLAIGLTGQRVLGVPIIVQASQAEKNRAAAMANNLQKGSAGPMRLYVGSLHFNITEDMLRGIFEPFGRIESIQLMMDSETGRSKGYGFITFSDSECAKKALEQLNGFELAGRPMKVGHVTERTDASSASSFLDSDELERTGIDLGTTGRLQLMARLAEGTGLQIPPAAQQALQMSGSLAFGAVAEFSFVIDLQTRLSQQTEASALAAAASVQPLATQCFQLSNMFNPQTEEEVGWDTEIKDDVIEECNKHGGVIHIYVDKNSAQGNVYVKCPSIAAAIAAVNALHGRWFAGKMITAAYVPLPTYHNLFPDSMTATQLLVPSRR
# RBM39 and DCAF15, sequence (Q66K64 whole entry, species assumed): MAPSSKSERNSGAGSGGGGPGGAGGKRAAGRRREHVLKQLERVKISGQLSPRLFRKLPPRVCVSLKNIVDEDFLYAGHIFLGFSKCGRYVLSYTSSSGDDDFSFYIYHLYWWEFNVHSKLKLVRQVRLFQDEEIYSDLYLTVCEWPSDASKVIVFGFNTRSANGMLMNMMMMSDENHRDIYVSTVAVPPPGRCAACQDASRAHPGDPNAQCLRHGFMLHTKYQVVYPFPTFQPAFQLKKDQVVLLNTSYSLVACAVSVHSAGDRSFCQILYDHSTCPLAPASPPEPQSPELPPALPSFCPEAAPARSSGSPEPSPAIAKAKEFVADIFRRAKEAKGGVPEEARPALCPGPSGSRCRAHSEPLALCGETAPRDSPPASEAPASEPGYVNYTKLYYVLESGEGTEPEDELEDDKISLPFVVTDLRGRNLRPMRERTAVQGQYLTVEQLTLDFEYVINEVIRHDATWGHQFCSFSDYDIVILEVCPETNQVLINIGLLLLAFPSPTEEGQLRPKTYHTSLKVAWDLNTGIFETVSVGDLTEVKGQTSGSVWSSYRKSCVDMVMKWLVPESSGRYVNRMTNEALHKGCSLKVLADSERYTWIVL
# T1 sequence (Q9UKS7 whole entry, the tested form may be a part): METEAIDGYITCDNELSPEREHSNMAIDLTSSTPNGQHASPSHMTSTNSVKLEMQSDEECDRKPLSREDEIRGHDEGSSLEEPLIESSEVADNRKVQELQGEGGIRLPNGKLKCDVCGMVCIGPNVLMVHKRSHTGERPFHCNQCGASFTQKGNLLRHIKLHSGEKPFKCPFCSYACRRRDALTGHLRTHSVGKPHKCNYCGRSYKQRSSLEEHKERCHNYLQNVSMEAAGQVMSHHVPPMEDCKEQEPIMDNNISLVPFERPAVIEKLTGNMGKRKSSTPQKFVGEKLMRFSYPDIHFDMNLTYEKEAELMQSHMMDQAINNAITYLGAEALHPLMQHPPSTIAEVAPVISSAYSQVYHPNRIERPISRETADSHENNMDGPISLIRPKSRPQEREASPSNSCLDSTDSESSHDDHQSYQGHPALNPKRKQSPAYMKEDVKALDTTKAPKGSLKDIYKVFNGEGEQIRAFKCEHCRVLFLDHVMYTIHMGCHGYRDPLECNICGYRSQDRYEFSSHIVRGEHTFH
# T1 sequence (Q96SW2 whole entry, the tested form may be a part): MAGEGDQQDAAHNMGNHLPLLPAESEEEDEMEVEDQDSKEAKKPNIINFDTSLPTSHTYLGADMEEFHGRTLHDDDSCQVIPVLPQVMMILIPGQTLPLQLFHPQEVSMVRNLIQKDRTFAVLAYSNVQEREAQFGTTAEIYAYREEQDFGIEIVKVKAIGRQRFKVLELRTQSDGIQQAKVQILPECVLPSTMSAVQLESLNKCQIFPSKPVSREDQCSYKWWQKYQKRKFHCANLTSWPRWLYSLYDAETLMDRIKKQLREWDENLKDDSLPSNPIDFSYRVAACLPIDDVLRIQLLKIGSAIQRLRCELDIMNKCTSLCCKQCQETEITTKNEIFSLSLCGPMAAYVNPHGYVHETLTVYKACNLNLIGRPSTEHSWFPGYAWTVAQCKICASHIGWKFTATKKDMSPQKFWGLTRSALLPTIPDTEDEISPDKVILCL
Structure (SMILES),GFP signal over time compared to the DMSO control (IKZF2-CRBN [1]),glue activity for IKZF2-CRBN protein pair (known) (IKZF2-CRBN [2]),glue activity for protein pair RBM39 and DCAF15 (known) (RBM39 and DCAF15)
Nc1ccc(S(=O)(=O)Nc2cnc3c(Cl)cccc3n2)cc1,indistinguishable from the DMSO control,devoid of glue activity,known glues
NS(=O)(=O)c1ccc(S(=O)(=O)Nc2cccc3c(Cl)c[nH]c23)cc1 [Indisulam],indistinguishable from the DMSO control,devoid of glue activity,known glues
